Assay results: patent publication US12552812B2, “Pyridone multiple-membered ring derivatives and use thereof” (priority 2021, dated 2026)

Columns and labels:
[1] = test system: Baloxavir-resistant A/PR/8/34 (H1N1) I38T influenza virus strain; format: cell-based
[2] = test system: Baloxavir-resistant A/PR/8/34 (H1N1) I38T virus strain; design: species or system BALB/c mice; settings: mouse, in vivo

Row | SMILES | EC50 [1] [nM] | Survival rate (%) [2] [%] | body weight of the mice [2]
1 | O=C1c2c(O)c(=O)ccn2N([C@H]2c3ccc(F)c(F)c3C[Se]c3cccnc32)[C@@H]2COCCN12 [Compound 3] | 57.5 | – | –
2 | COC(=O)OCOc1c2n(ccc1=O)N([C@H]1c3ccc(F)c(F)c3C[Se]c3cccnc31)[C@@H]1COCCN1C2=O [Compound 4] | – | 100 | hardly decreased
